How the values were obtained:
[1] = Solubility test of the ionic liquid in base oil; assay type: physicochemical; conditions: lubricant composition of IL1 and base oil; room temperature (15-25° C.) and 60° C.; limpid after three months
Text: In order to be used in a lubricant composition, the guanidinium-based ionic liquid must preferably be soluble in the base oil which represents the major part of the lubricant composition. A compound is oil-soluble when it can be solubilized at a concentration of at least 0.01% by weight with regards to the weight of a base oil, at room temperature. In order to check that the guanidinium-based ionic liquid is oil-soluble, a test is disclosed in the experimental part.
In order to check that the guanidinium-based ionic liquid is oil-soluble, the following test has been achieved:
100 mL of the lubricant composition comprising IL1 and the base oil is introduced into two reaction tubes. One of the tubes is maintained at room temperature (between 15 and 25° C.) and the other reaction tube is placed in an oven at 60° C.
After three months, the lubricant composition of both reaction tubes was limpid.

[2] = Base number (BN/TBN) according to ASTM D2896; assay type: physicochemical; conditions: neat ionic liquid
Experimental: An oil's neutralization capacity is measured by its BN or Base Number, characterized by its basicity. It is measured according to standard ASTM D-2896 and is expressed as an equivalent in milligrams of potash per gram of oil (also called “mg of KOH/g” or “BN point”). The BN is a standard criterion making it possible to adjust the basicity of the cylinder oils to the sulphur content of the fuel oil used, in order to be able to neutralize all of the sulphur contained in the fuel, and capable of being converted to sulphuric acid by combustion and hydrolysis.
The base number of IL1 is 61 mg KOH/g according to ASTM D2896.

With “1,1,3,3-tetramethylguanidinium tert-Octylphenylpolyethoxyethanolate [IL1]” the “solubility in the oil” value [1] was “soluble in the oil” and the base number [2] was 61 mg KOH/g.

Reference: patent publication US12122973B2, “Guanidinium-based ionic liquid and its use as a lubricant additive” (TOTALENERGIES ONETECH, priority 2020, dated 2024)
